Paper PMC6522510 (Nature Communications, 2019)
Counter-ions that a name gives are not always drawn. Like-named read-outs stand apart in the source and are kept apart here.

Legend:
[1] = tested on: M07e; assay: cells; design: species or system AML cell lines (8); Secondary HTS, 10-point dose-response in triplicate, Cell Titer Glo viability, four-parameter fit EC50; conditions: M-07e, 72 h, read-out: M07e
[2] = tested on: ML2; assay: Secondary dose-response HTS, Cell Titer Glo; format: cell-based, human; conditions: secondary high-throughput screen; ML-2; read-out: average effective concentration, ML-2
[3] = tested on: MOLM-13; design: species or system AML cell lines (8); Primary HTS, single concentration about 10 uM, Cell Titer Glo viability; log10 luminescence, per cent inhibition relative to cycloheximide control; conditions: 72 h, relative to cycloheximide control, log10 luminescence, inhibitor
[4] = tested on: CHRF288-11; design: species or system AML cell lines (8); Primary HTS, single concentration about 10 uM, Cell Titer Glo viability; log10 luminescence, per cent inhibition relative to cycloheximide control; conditions: 72 h, relative to cycloheximide control, log10 luminescence, inhibitor
[5] = tested on: U937; design: species or system AML cell lines (8); Primary HTS, single concentration about 10 uM, Cell Titer Glo viability; log10 luminescence, per cent inhibition relative to cycloheximide control; conditions: 72 h, relative to cycloheximide control, log10 luminescence, inhibitor
[6] = tested on: CMS; design: species or system AML cell lines (8); Primary HTS, single concentration about 10 uM, Cell Titer Glo viability; log10 luminescence, per cent inhibition relative to cycloheximide control; conditions: 72 h, relative to cycloheximide control, log10 luminescence, inhibitor
[7] = tested on: CMK; design: species or system AML cell lines (8); Primary HTS, single concentration about 10 uM, Cell Titer Glo viability; log10 luminescence, per cent inhibition relative to cycloheximide control; conditions: 72 h, relative to cycloheximide control, log10 luminescence, inhibitor
[8] = tested on: M07e; design: species or system AML cell lines (8); Primary HTS, single concentration about 10 uM, Cell Titer Glo viability; log10 luminescence, per cent inhibition relative to cycloheximide control; conditions: 72 h, relative to cycloheximide control, log10 luminescence, inhibitor
[9] = tested on: MV4-11; design: species or system AML cell lines (8); Primary HTS, single concentration about 10 uM, Cell Titer Glo viability; log10 luminescence, per cent inhibition relative to cycloheximide control; conditions: 72 h, relative to cycloheximide control, log10 luminescence, inhibitor
[10] = tested on: ML-2; design: species or system AML cell lines (8); Primary HTS, single concentration about 10 uM, Cell Titer Glo viability; log10 luminescence, per cent inhibition relative to cycloheximide control; conditions: 72 h, relative to cycloheximide control, log10 luminescence, inhibitor

## CO[C@H](C(=O)[C@@H](O)[C@@H](C)O)[C@@H]1Cc2cc3cc(O[C@H]4C[C@@H](O[C@H]5C[C@@H](O)[C@H](O)[C@@H](C)O5)[C@H](O)[C@@H](C)O4)c(C)c(O)c3c(O)c2C(=O)[C@H]1O[C@H]1C[C@@H](O[C@H]2C[C@@H](O[C@H]3C[C@](C)(O)[C@H](O)[C@@H](C)O3)[C@@H](O)[C@@H](C)O2)[C@H](O)[C@@H](C)O1 [MITHRAMYCIN A]
[1]
  EC50: > 10 µM

## O=C1c2c(O)ccc(O)c2C(=O)c2c(NCCNCCO)ccc(NCCNCCO)c21 [MITOXANTHRONE]
[2]
  EC50: 0.24 µM

## C=CCn1c(=O)c2cnc(Nc3ccc(N4CCN(C)CC4)cc3)nc2n1-c1cccc(C(C)(C)O)n1 [MK-1775]
[1]
  EC50: > 10 µM

## CNC(=O)[C@@H](NC(=O)[C@H](CC(C)C)[C@H](O)C(=O)NO)C(C)(C)C [SJ000772411-2]
[3]; MOLM-13 %inh, 10 µM
  MOLM-13 %inh: 10.77%
[4]; CHRF288-11 %inh, 10 µM
  CHRF288-11 %inh: 28.21%
[5]; U937 %inh, 10 µM
  U937 %inh: 3.1%
[6]; CMS %inh, 10 µM
  CMS %inh: 3.256%
[7]; CMK %inh, 10 µM
  CMK %inh: 5.663%
[8]; M07e %inh, 10 µM
  M07e %inh: 4.087%
[9]; MV4-11 %inh, 10 µM
  MV4-11 %inh: 3.499%
[10]; ML-2 %inh, 10 µM
  ML-2 %inh: 2.823%

## COC(=O)[C@H](CC(C)C)NC(=O)[C@@H](O)[C@H](N)Cc1ccccc1 [SJ000772416-1, BESTATIN METHYL ESTER]
[3]
  MOLM-13 %inh: -1.654%
[4]
  CHRF288-11 %inh: 5.118%
[5]
  U937 %inh: 22.26%
[6]
  CMS %inh: 2.851%
[7]
  CMK %inh: 1.43%
[8]
  M07e %inh: 3.275%
[9]
  MV4-11 %inh: 8.922%
[10]
  ML-2 %inh: 3.75%

## CC(C)[C@@H]1C(=O)N(S(C)(=O)=O)[C@@H]2CCN(C(=O)/C=C/CN3CCCCC3)[C@H]21 [SJ000772418-1, GW 311616 HYDROCHLORIDE]
[3]
  MOLM-13 %inh: -2.354%
[4]
  CHRF288-11 %inh: 12.76%
[5]
  U937 %inh: -1.402%
[6]
  CMS %inh: 4.399%
[7]
  CMK %inh: -2.728%
[8]
  M07e %inh: 1.212%
[9]
  MV4-11 %inh: 3.043%
[10]
  ML-2 %inh: 0.5681%

## C=CCNC(=O)c1cc([N+](=O)[O-])cc2c(=O)[nH]c(Nc3ccc(Cl)c(Cl)c3)nc12 [SJ000772422-1, AZ 10417808]
[3]
  MOLM-13 %inh: 0.5205%
[4]
  CHRF288-11 %inh: 0.7864%
[5]
  U937 %inh: -1.321%
[6]
  CMS %inh: 0.1501%
[7]
  CMK %inh: -3.629%
[8]
  M07e %inh: 3.044%
[9]
  MV4-11 %inh: 3.564%
[10]
  ML-2 %inh: 0.702%

## COC[C@@H](NC(=O)[C@@H](NC(=O)[C@H](CCCc1ccc(-c2ccccc2)c(C)c1)CC(=O)O)C(C)(C)C)c1ccccc1 [SJ000772423-1, UK 370106]
[3]
  MOLM-13 %inh: 2.493%
[4]
  CHRF288-11 %inh: 6.021%
[5]
  U937 %inh: 2.263%
[6]
  CMS %inh: 4.79%
[7]
  CMK %inh: -0.5196%
[8]
  M07e %inh: 2.4%
[9]
  MV4-11 %inh: 2.629%
[10]
  ML-2 %inh: 0.2215%

## NC(N)=NCCS[C@@H](CC(=O)O)C(=O)O [SJ000772425-1, GEMSA]
[3]
  MOLM-13 %inh: 0.138%
[4]
  CHRF288-11 %inh: -3.397%
[5]
  U937 %inh: 0.2934%
[6]
  CMS %inh: -0.9686%
[7]
  CMK %inh: -1.464%
[8]
  M07e %inh: 1.501%
[9]
  MV4-11 %inh: 3.627%
[10]
  ML-2 %inh: 0.5506%

## COc1cc(C(C)C)c2c(c1)S(=O)(=O)N(COc1cc(=O)n3cccc(OCCN4CCCCC4)c3n1)C2=O [SJ000772427-1, SSR 69071]
[3]
  MOLM-13 %inh: 1.802%
[4]
  CHRF288-11 %inh: -3.004%
[5]
  U937 %inh: 2.526%
[6]
  CMS %inh: 3.665%
[7]
  CMK %inh: 0.212%
[8]
  M07e %inh: 1.75%
[9]
  MV4-11 %inh: 4.165%
[10]
  ML-2 %inh: -0.6502%

## CC(C)C[C@H](N)[C@](O)(Cc1cnc[nH]1)C(=O)O [SJ000772431-1, LEUHISTIN]
[3]
  MOLM-13 %inh: 0.702%
[4]
  CHRF288-11 %inh: 4.998%
[5]
  U937 %inh: 2.882%
[6]
  CMS %inh: 1.294%
[7]
  CMK %inh: -1.024%
[8]
  M07e %inh: 1.038%
[9]
  MV4-11 %inh: 3.279%
[10]
  ML-2 %inh: 5.093%

## O=C(O)C(Cc1ccc2c(c1)oc1ccccc12)NCP(=O)(O)O (centres unmarked) [SJ000772433-1, CGS 35066]
[3]
  MOLM-13 %inh: 2.239%
[4]
  CHRF288-11 %inh: 0.3778%
[5]
  U937 %inh: 0.4141%
[6]
  CMS %inh: -0.6949%
[7]
  CMK %inh: -1.634%
[8]
  M07e %inh: 2.079%
[9]
  MV4-11 %inh: 3.69%
[10]
  ML-2 %inh: 5.201%

## C[C@H](NC(=O)Cc1cc(F)cc(F)c1)C(=O)N[C@H](C(=O)OC(C)(C)C)c1ccccc1 [SJ000772434-1, DAPT | DAPT (GSI-IX)]
[3]
  MOLM-13 %inh: 2.225%
[4]
  CHRF288-11 %inh: 2.669%
[5]
  U937 %inh: 0.2025%
[6]
  CMS %inh: 0.2641%
[7]
  CMK %inh: -0.675%
[8]
  M07e %inh: 1.132%
[9]
  MV4-11 %inh: 5.48%
[10]
  ML-2 %inh: 5.016%

## NC(CCC(=O)NOC(=O)c1ccccc1)C(=O)N1CCCC1 (centres unmarked) [SJ000773150-1]
[3]
  MOLM-13 %inh: 1.337%
[4]
  CHRF288-11 %inh: -3.643%
[5]
  U937 %inh: -0.8595%
[6]
  CMS %inh: -1.088%
[7]
  CMK %inh: -2.389%
[8]
  M07e %inh: 3.014%
[9]
  MV4-11 %inh: -0.09979%
[10]
  ML-2 %inh: 1.208%

## Cc1c[nH]c(/C=C2\C(=O)Nc3ccccc32)c1CCC(=O)O [SJ000773151-1, SU 5402 |]
[3]
  MOLM-13 %inh: 64.04%
[4]
  CHRF288-11 %inh: 8.965%
[5]
  U937 %inh: -1.966%
[6]
  CMS %inh: 2.629%
[7]
  CMK %inh: 3.453%
[8]
  M07e %inh: 7.079%
[9]
  MV4-11 %inh: 45.76%
[10]
  ML-2 %inh: -0.6671%

## NC(=O)c1cc(-c2ccc(Cl)cc2)cc(-c2ccc(S(N)(=O)=O)cc2)c1N [SJ000773162-1, IKK INHIBITOR XII]
[3]
  MOLM-13 %inh: 3.294%
[4]
  CHRF288-11 %inh: 5.412%
[5]
  U937 %inh: 5.575%
[6]
  CMS %inh: 0.8646%
[7]
  CMK %inh: 7.074%
[8]
  M07e %inh: -0.482%
[9]
  MV4-11 %inh: 6.438%
[10]
  ML-2 %inh: 2.717%

## O=C(N/N=C/c1coc2ccccc2c1=O)c1cccnc1 [SJ000773164-1, STAT5 INHIBITOR]
[3]
  MOLM-13 %inh: 0.6226%
[4]
  CHRF288-11 %inh: 2.609%
[5]
  U937 %inh: 1.718%
[6]
  CMS %inh: -3.081%
[7]
  CMK %inh: 0.4302%
[8]
  M07e %inh: -2.508%
[9]
  MV4-11 %inh: 5.196%
[10]
  ML-2 %inh: 0.5689%

## CCOC(=O)c1c(C)[nH]c(/C=C2\C(=O)Nc3ccccc32)c1C [SJ000773165-1, VEGFR2 KINASE INHIBITOR I]
[3]
  MOLM-13 %inh: 14.97%
[4]
  CHRF288-11 %inh: 3.3%
[5]
  U937 %inh: -1.551%
[6]
  CMS %inh: -2.877%
[7]
  CMK %inh: 1.896%
[8]
  M07e %inh: -1.094%
[9]
  MV4-11 %inh: 4.438%
[10]
  ML-2 %inh: -1.978%

## O=C1Cc2c([nH]c3ccc(Br)cc23)-c2ncccc2N1 [SJ000773177-1, 1-AZAKENPAULLONE]
[3]
  MOLM-13 %inh: 1.556%
[4]
  CHRF288-11 %inh: 3.099%
[5]
  U937 %inh: 4.514%
[6]
  CMS %inh: 11.6%
[7]
  CMK %inh: -2.288%
[8]
  M07e %inh: 0.4716%
[9]
  MV4-11 %inh: 9.942%
[10]
  ML-2 %inh: 3.703%

## Nc1[nH]nc2nnc(-c3c(-c4ccccc4)nn4ccccc34)cc12 [SJ000773182-1, FR 180204]
[3]
  MOLM-13 %inh: 10.92%
[4]
  CHRF288-11 %inh: 4.206%
[5]
  U937 %inh: 0.5636%
[6]
  CMS %inh: 0.8706%
[7]
  CMK %inh: 2.552%
[8]
  M07e %inh: 4.808%
[9]
  MV4-11 %inh: 11.54%
[10]
  ML-2 %inh: 1.644%

## O=C(O)c1cc2cc(O)c(O)cc2c(C(=O)c2ccc(O)c(O)c2)n1 [SJ000773184-1, NBI-31772]
[3]
  MOLM-13 %inh: 2.784%
[4]
  CHRF288-11 %inh: -3.882%
[5]
  U937 %inh: 2.592%
[6]
  CMS %inh: 0.1786%
[7]
  CMK %inh: 20.66%
[8]
  M07e %inh: 0.05281%
[9]
  MV4-11 %inh: 0.9533%
[10]
  ML-2 %inh: 4.963%

## N#Cc1cnc2cnc(NCc3cccnc3)cc2c1Nc1ccc(F)c(Cl)c1 [SJ000773185-1, TPL2 KINASE INHIBITOR]
[3]
  MOLM-13 %inh: 88.46%
[4]
  CHRF288-11 %inh: 6.987%
[5]
  U937 %inh: 7.932%
[6]
  CMS %inh: -1.042%
[7]
  CMK %inh: 12.32%
[8]
  M07e %inh: 3.597%
[9]
  MV4-11 %inh: 3.7%
[10]
  ML-2 %inh: -0.1066%
